From patent US20240293413A1, “COMPOUND AND METHOD FOR TREATING CHEMOTHERAPY-RELATED GASTROINTESTINAL SIDE EFFECTS” (ONQUALITY PHARMACEUTICALS CHINA LTD., priority 2021, published 2024)

Key:
Format in all cases: in vivo
[1] = test system: diarrhea caused by a chemotherapeutic agent in Balb/c mice; assay: Examples 343-381 (Table 6): oral versus intravenous CDK inhibitor, relief of diarrhea caused by a chemotherapeutic agent; details: for Relative remission rate: Example 369, Topotecan (TP) intramuscular injection 10 mg/kg single, 12 h before, cycle 10 days;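 on Relative remission rate: percent of treated mice whose diarrhea grade fell below chemotherapy-group average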
Excerpt: Balb/c mice were fed for 1 week, and then divided into groups. The experiment was divided into a control group, a chemotherapeutic agent group, and an oral administration group of a CDK inhibitor, and an intravenous injection group of a CDK inhibitor, each of which comprised 10 mice, to perform the administration experiment, for which the administration dosage, mode, time and frequency were shown in Table 6. The control group: being injected/intragastrically administered with the same solvent as that used in the CDK inhibitor group (the time was shown in Table 6), and then being injected/intragastrically administered with the same solvent as that used in the chemotherapeutic agent group (the administration mode was shown in Table 6): the chemotherapeutic agent group: being injected/intragastrically administered with the same solvent as that used in the CDK inhibitor group (the time was shown in Table 6), and then being injected/intragastrically administered with the chemotherapeutic agent (the type, administration mode and dosage were shown in Table 6): the oral administration group of the CDK inhibitor: being intragastrically administered with the CDK inhibitor (the time was shown in Table 6), and then being administered with the chemotherapeutic agent (the mode and dosage were shown in Table 6): the intravenous injection group of the CDK inhibitor: being injected with the CDK inhibitor through tail vein (the time was shown in Table 6), and then being administered with the chemotherapeutic agent (the mode and dosage were shown in Table 6).
(§1) The diarrhea grading of mice was observed and recorded every day.

[2] = test system: Chemotherapeutic agent-caused constipation models of Balb/c mice; assay: Examples 272-342 (Table 5): oral CDK inhibitor, relief of constipation caused by a chemotherapeutic agent; details: cycle 8 days;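 further: percent of treated mice relieved versus chemotherapy group by feces reduction rate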
Excerpt: Construction of mouse animal models: Chemotherapeutic agent-caused constipation models of Balb/c mice were constructed according to the administration mode and frequency of the chemotherapeutic agent as shown in Table 5.
(§2) Balb/c mice were fed for 1 week, and then divided into groups. The experiment was divided into a control group, a chemotherapeutic agent group, and a CDK inhibitor group, each of which comprised 10 mice, to perform the administration experiment, for which the administration dosage, mode, time and frequency were shown in Table 5. The control group: being intragastrically administered with the same solvent as that used in the CDK inhibitor group (the time was shown in Table 5), and then being injected/intragastrically administered with the same solvent as that used in the chemotherapeutic agent group (the administration mode was shown in Table 5): the chemotherapeutic agent group: being intragastrically administered with the same solvent as that used in the CDK inhibitor group (the time was shown in […]), and then being injected/intragastrically administered with the chemotherapeutic agent (the type, administration mode and dosage were shown in Table 5): the CDK inhibitor group: being intragastrically administered with the CDK inhibitor (the time was shown in Table 5), and then being administered with the chemotherapeutic agent (the mode and dosage were shown in Table 5).
Feces reduction rate (%)=(the control group−the chemotherapeutic agent group or the CDK inhibitor group)/the control group*100%
The feces amount of mice within 3 hours was observed and recorded every day.

[3] = test system: Chemotherapeutic agent-caused diarrhea models of Balb/c mice; assay: Examples 1-229 (Table 3): oral CDK inhibitor, relief of diarrhea caused by a chemotherapeutic agent;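 further: percent of treated mice whose diarrhea grade fell below chemotherapy-group average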
Excerpt: Construction of mouse animal models: Chemotherapeutic agent-caused diarrhea models of Balb/c mice were constructed according to the administration mode and frequency of the chemotherapeutic agent as shown in Table 3.
as §2, with “in Table 3. The control” for “in Table 5. The control”, “in Table 3), and then” for “in Table 5), and then”, “in Table 3): the chemotherapeutic” for “in Table 5): the chemotherapeutic”, “in Table 3); the CDK” for “in Table 5): the CDK”, “in Table 3).” for “in Table 5).”
as §1

Compound: CN[C@@H]1C[C@H]2O[C@@](C)([C@@H]1OC)n1c3ccccc3c3c4c(c5c6ccccc6n2c5c31)C(=O)N[C@H]4O [KRX-0601]
- Relative remission rate ([1]; CDK inhibitor intravenous injection 250 mg/kg single): 10%
- Relative remission rate ([1]; CDK inhibitor oral 250 mg/kg single): 20%
- relief of diarrhea by oral administration and injection administration ([1]; diarrhea caused by etoposide, etoposide in combination with cisplatin, carboplatin, gemcitabine, gemcitabine in combination with carboplatin, and topotecan, oral administration has the most significant effect): effectively relieve diarrhea
- Relative remission rate ([2]; Example 334, Cytarabine (Ara-C) intramuscular injection 600 mg/kg single, CDK inhibitor oral 40 mg/kg single, 12 h before): 10%
- Relative remission rate (%) ([3]; Example 165, Docetaxel (DTX) oral administration 30 mg/kg single, CDK inhibitor oral 250 mg/kg single 3 h before, cycle 8 days): 10%

Compound: CNC(=O)c1nn(C)c2c1C(C)(C)Cc1cnc(Nc3ccc(N4CCN(C)CC4)cc3)nc1-2 [Milciclib]
- Relative remission rate ([2]; Example 315, Docetaxel (DTX) intraperitoneal injection 15 mg/kg single, CDK inhibitor oral 60 mg/kg single, 0.5 h before): 30%
- Relative remission rate ([2]; Example 316, Docetaxel (DTX) intraperitoneal injection 15 mg/kg single, CDK inhibitor oral 60 mg/kg single, 4 h before): 20%
- Relative remission rate ([2]; Example 317, Docetaxel (DTX) intraperitoneal injection 15 mg/kg single, CDK inhibitor oral 60 mg/kg single, 8 h before): 20%
- Relative remission rate ([2]; Example 318, Docetaxel (DTX) intraperitoneal injection 15 mg/kg single, CDK inhibitor oral 60 mg/kg single, 12 h before): 30%
- Relative remission rate ([2]; Example 319, Docetaxel (DTX) intraperitoneal injection 15 mg/kg single, CDK inhibitor oral 60 mg/kg single, 24 h before): 10%
- Relative remission rate ([2]; Example 320, Docetaxel (DTX) intraperitoneal injection 15 mg/kg single, CDK inhibitor oral 60 mg/kg single, 48 h before): 0%
- Relative remission rate (%) ([3]; Example 194, Gemcitabine 60 mg/kg and paclitaxel 10 mg/kg intraperitoneal injection single, CDK inhibitor oral 60 mg/kg single, 2 h before, 8 days): 40%

Compound: CC(=O)Nc1ccc([C@H](C)C(=O)Nc2ncc(C(C)C)s2)cc1 [PHA-690509]
- Relative remission rate (%) ([3]; Example 123, Irinotecan (CPT-11) intraperitoneal injection 240 mg/kg single, CDK inhibitor oral 60 mg/kg single 12 h before, cycle 7 days): 40%

Compound: CC(C)CC(=O)Nc1[nH]nc2c1CN(C(=O)C1CCN(C)CC1)C2(C)C [PHA-793887]
- Relative remission rate (%) ([3]; Example 160, Docetaxel (DTX) intraperitoneal injection 10 mg/kg single, CDK inhibitor oral 70 mg/kg single 4 h before, cycle 8 days): 30%

Compound: COCCN1CCN(Cc2ccc(-c3n[nH]c4c3C(=O)c3c(NC(=O)NN5CCOCC5)cccc3-4)cc2)CC1 [RGB-286638]
- Relative remission rate (%) ([3]; Example 124, Irinotecan (CPT-11) intraperitoneal injection 240 mg/kg single, CDK inhibitor oral 100 mg/kg single 12 h before, cycle 7 days): 60%
- Relative remission rate (%) ([3]; Example 130, Irinotecan (CPT-11) intravenous injection 200 mg/kg single, CDK inhibitor oral 100 mg/kg single 8 h before, cycle 7 days): 50%

Compound: COc1ccc(F)c(F)c1C(=O)c1cnc(NC2CCN(S(C)(=O)=O)CC2)nc1N [RO4584820]
- Relative remission rate (%) ([3]; Example 218, Fluorouracil 100 mg/kg and irinotecan 200 mg/kg intravenous injection single, CDK inhibitor oral 70 mg/kg single, 4 h before, 10 days): 50%

Compound: COc1cc(OC)c(/C=C/S(=O)(=O)Cc2ccc(OC)c(NCC(=O)O)c2)c(OC)c1 [Rigosertib]
- Relative remission rate (%) ([3]; Example 116, Irinotecan (CPT-11) intraperitoneal injection 240 mg/kg single, CDK inhibitor oral 250 mg/kg single 4 h before, cycle 7 days): 20%
- Relative remission rate (%) ([3]; Example 189, Gemcitabine (GEM) intraperitoneal injection 120 mg/kg single, CDK inhibitor oral 250 mg/kg single, 6 h before, 8 days): 30%
- Relative remission rate (%) ([3]; Example 214, Fluorouracil 100 mg/kg and irinotecan 200 mg/kg intravenous injection single, CDK inhibitor oral 250 mg/kg single, 2 h before, 10 days): 20%

Compound: Cc1c(Br)c(Br)c2c3c1nc(N1CCNCC1)n3CCC2 [SEL120]
- Relative remission rate (%) ([3]; Example 75, Oxaliplatin intraperitoneal injection 20 mg/kg single, CDK inhibitor oral 80 mg/kg single 8 h before, cycle 8 days): 40%
- Relative remission rate (%) ([3]; Example 120, Irinotecan (CPT-11) intraperitoneal injection 240 mg/kg single, CDK inhibitor oral 80 mg/kg single 8 h before, cycle 7 days): 40%

Compound: CN1CC[C@H](c2c(OP(=O)(O)O)cc(O)c3c(=O)cc(-c4ccccc4Cl)oc23)[C@H](O)C1 [TP-1287]
- Relative remission rate (%) ([3]; Example 37, Fluorouracil (5-Fu) intraperitoneal injection 125 mg/kg single, CDK inhibitor oral 10 mg/kg single 10 h before, cycle 10 days): 40%

Compound: CC(C)c1c2cc(-c3nc(Nc4ccc(N5CCNCC5)cn4)ncc3F)ccc2nn1C [TQB-3616]
- Relative remission rate (%) ([3]; Example 32, Fluorouracil (5-Fu) intraperitoneal injection 125 mg/kg single, CDK inhibitor oral 70 mg/kg single 4 h before, cycle 10 days): 30%
- Relative remission rate (%) ([3]; Example 148, Docetaxel (DTX) intraperitoneal injection 10 mg/kg single, CDK inhibitor oral 70 mg/kg single 4 h before, cycle 8 days): 50%
- Relative remission rate (%) ([3]; Example 197, Gemcitabine 60 mg/kg and paclitaxel 10 mg/kg intravenous injection single, CDK inhibitor oral 70 mg/kg single, 4 h before, 8 days): 60%
- Relative remission rate (%) ([3]; Example 220, Fluorouracil 100 mg/kg and oxaliplatin 10 mg/kg intraperitoneal injection single, CDK inhibitor oral 70 mg/kg single, 6 h before, 10 days): 60%

Compound: CN1CC[C@@H](c2c(O)cc(O)c3c(=O)cc(-c4ccc(C(F)(F)F)cc4Cl)oc23)[C@@H]1CO [Voruciclib]
- Relative remission rate (%) ([3]; Example 76, Oxaliplatin intraperitoneal injection 20 mg/kg single, CDK inhibitor oral 250 mg/kg single 4 h before, cycle 8 days): 70%
- Relative remission rate (%) ([3]; Example 203, Gemcitabine 60 mg/kg and paclitaxel 10 mg/kg intravenous injection single, CDK inhibitor oral 250 mg/kg single, 8 h before, 8 days): 80%

Compound: CN1C/C=C/CCOc2cccc(c2)-c2ccnc(n2)Nc2cccc(c2)C1 [Zotiraciclib]
- Relative remission rate (%) ([3]; Example 33, Fluorouracil (5-Fu) intraperitoneal injection 125 mg/kg single, CDK inhibitor oral 100 mg/kg single 4 h before, cycle 10 days): 20%
- Relative remission rate (%) ([3]; Example 152, Docetaxel (DTX) intraperitoneal injection 10 mg/kg single, CDK inhibitor oral 100 mg/kg single 8 h before, cycle 8 days): 30%

Compound: FN-1501
- Relative remission rate (%) ([3]; Example 36, Fluorouracil (5-Fu) intraperitoneal injection 125 mg/kg single, CDK inhibitor oral 200 mg/kg single 6 h before, cycle 10 days): 60%
- Relative remission rate (%) ([3]; Example 156, Docetaxel (DTX) intraperitoneal injection 10 mg/kg single, CDK inhibitor oral 200 mg/kg single 10 h before, cycle 8 days): 60%
- Relative remission rate (%) ([3]; Example 169, Docetaxel (DTX) intravenous injection 10 mg/kg single, CDK inhibitor oral 200 mg/kg single 8 h before, cycle 8 days): 50%
